Test results as given in US7713971B2, “1,2,4-triazine derivatives, preparation and use thereof in human therapy” (Pierre Fabre Medicament, priority 2005, dated 2010).
Where two headings read alike, the source gives them in different places.

Assays:
human PPARγ = molecular target: T1, human PPARγ (Homo sapiens, UniProt P37231); assay: Reporter gene transactivation, hPPAR-GAL4 gamma; format: cell-based; details: transfected Cos-7 cells, Gal-4 luciferase reporter, 24 hours treatment
T1 construct: expressed in transfected cells; host or cells: Cos-7 cells (ATCC, CRL-1651)
T1 sequence (P37231 238-503 limits assumed): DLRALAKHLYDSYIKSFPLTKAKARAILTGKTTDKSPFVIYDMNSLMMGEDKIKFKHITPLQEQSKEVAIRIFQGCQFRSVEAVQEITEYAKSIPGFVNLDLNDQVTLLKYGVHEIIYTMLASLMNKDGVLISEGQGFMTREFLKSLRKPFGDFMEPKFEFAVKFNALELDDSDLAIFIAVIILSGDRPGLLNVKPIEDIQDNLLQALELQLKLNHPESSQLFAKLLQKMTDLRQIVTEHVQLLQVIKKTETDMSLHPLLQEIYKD

human PPARα = molecular target: T2, human PPARα (Homo sapiens, UniProt Q07869); assay: Reporter gene transactivation, hPPAR-GAL4 alpha; format: cell-based; details: transfected Cos-7 cells, Gal-4 luciferase reporter, 24 hours treatment
T2 construct: expressed in transfected cells; host or cells: Cos-7 cells (ATCC, CRL-1651)
T2 sequence (Q07869 239-466 limits assumed): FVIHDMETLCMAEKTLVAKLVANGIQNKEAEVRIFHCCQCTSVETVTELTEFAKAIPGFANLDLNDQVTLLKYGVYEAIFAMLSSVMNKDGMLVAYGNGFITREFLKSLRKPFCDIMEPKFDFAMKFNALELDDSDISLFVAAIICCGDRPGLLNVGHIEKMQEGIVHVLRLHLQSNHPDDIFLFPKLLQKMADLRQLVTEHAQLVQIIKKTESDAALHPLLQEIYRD

[1] = test system: insulin-resistant male rat (Ico: ZUCKER-fa/fa); assay: Normalization of metabolic parameters (cholesterol, plasma triglycerides) in insulin-resistant rat; format: in vivo; details: oral route, once per day for four days, Zucker fa/fa rat unfed 16-18 hours; for change in vivo at 2.5 mg/kg / change in vivo at 10 mg/kg: 96 h
Method: Normalization of metabolic parameters (cholesterol, plasma triglycerides) in an insulin-resistant male rat (Ico: ZUCKER-fa/fa), unfed for 16-18 hours, after treatment by oral route, once per day for four days, with the compounds to be evaluated or their administration vehicle.
These metabolic parameters are measured by spectrophotometry at the beginning and the end of each animal's treatment.

[2] = at 2.5 mg/kg, read-out: Plasma cholesterol
[3] = at 10 mg/kg, read-out: Plasma cholesterol
[4] = at 10 mg/kg, read-out: Plasma triglycerides

Structure (SMILES)	EC50 (human PPARγ)	EC50 (human PPARα)	change in vivo at 2.5 mg/kg [1, 2]	change in vivo at 10 mg/kg [1, 3]	change in vivo at 10 mg/kg [1, 4]	Plasma triglycerides ([1]; at 2.5 mg/kg)	change in vivo at 2.5 mg/kg ([1]; at 2.5 mg/kg, read-out: Plasma triglycerides)	Plasma cholesterol ([1]; at 10 mg/kg)	Plasma triglycerides ([1]; at 10 mg/kg)
CCCCn1c(=O)c(OCCCCCc2cccc(OC(C)(C)C(=O)OCC)c2)nn(C)c1=O [Example 11, Ethyl 2-{3-[5-(4-butyl-2-methyl-3,5-dioxo-2,3,4,5-tetrahydro-[1,2,4]triazin-6-yloxy)-pentyl]-phenoxy}-2-methyl-propionate]	1 to 3 µM	300 to 1000 nM	-25%	-25%	-37%	inactive at 2.5			
CCCCCCCn1nc(OCCCCCc2cccc(OC(C)(C)C(=O)OCC)c2)c(=O)n(CCCC)c1=O [Example 15, Ethyl 2-{3-[5-(4-butyl-2-heptyl-3,5-dioxo-2,3,4,5-tetrahydro-[1,2,4]triazin-6-yloxy)-pentyl]-phenoxy}-2-methyl-propionate]	0.1 to 0.3 µM	1 to 3 nM	-4%	-8%	-63%		-22%		
CCOC(=O)C(C)(C)Oc1cccc(CCCCCOc2nn(C)c(=O)n(CCCC(F)(F)F)c2=O)c1 [Example 16, Ethyl 2-methyl-2-(3-{5-[2-methyl-3,5-dioxo-4-(4,4,4-trifluoro-butyl)-2,3,4,5-tetrahydro-[1,2,4]triazin-6-yloxy]-pentyl}-phenoxy)-propionate]	3 to 10 µM	~100 nM	-14%	-25%	-15%	inactive at 2.5			
CCCCCCCn1c(=O)c(NCCCOc2ccc(OC(C)(C)C(=O)OCC)cc2)nn(C)c1=O [Example 47, Ethyl 2-{4-[3-(4-heptyl-4-methyl-3,5-dioxo-2,3,4,5-tetrahydro-[1,2,4]triazin-6-ylamino)-propoxy]-phenoxy}-2-methyl-propionate]	~0.3 µM	~300 nM		-25%	-45%				
CCCCCCCn1c(=O)c(NCCCc2cccc(OC(C)(C)C(=O)OCC)c2)nn(CCCC(F)(F)F)c1=O [Example 68, Ethyl 2-(3-{3-[4-heptyl-3,5-dioxo-2-(4,4,4-trifluoro-butyl)-2,3,4,5-tetrahydro-[1,2,4]triazin-6-ylamino]-propyl}-phenoxy)-2-methyl-propionate]	3 to 10 µM	100 to 300 nM		-21%					active at 10 mg/kg
CCOC(=O)C(C)(C)Oc1cccc(CCCCNc2nn(CCCC(F)(F)F)c(=O)n(C)c2=O)c1 [Example 74, Ethyl 2-methyl-2-(3-{4-[4-methyl-3,5-dioxo-2-(4,4,4-trifluoro-butyl)-2,3,4,5-tetrahydro-[1,2,4]triazin-6-ylamino]-butyl}-phenoxy)-propionate]	3 to 10 µM	~1000 nM	-18%	-29%	-26%	inactive at 2.5			
CCCCCCCn1nc(NCCCCc2cccc(OC(C)(C)C(=O)OCC)c2)c(=O)n(C)c1=O [Example 75, Ethyl 2-{3-[4-(2-heptyl-4-methyl-3,5-dioxo-2,3,4,5-tetrahydro-[1,2,4]triazin-6-ylamino)-butyl]-phenoxy}-2-methyl-propionate]	3 to 10 µM	3000 to 10000 nM	-19%	-13%					active at 10
CCCCCCCn1nc(NCCCCc2cccc(OC(C)(C)C(=O)OCC)c2)c(=O)n(Cc2ccccc2)c1=O [Example 91, Ethyl 2-{3-[4-(4-benzyl-2-heptyl-3,5-dioxo-2,3,4,5-tetrahydro-[1,2,4]triazin-6-ylamino)-butyl]-phenoxy}-2-methyl-propionate]	3 to 10 µM	300 to 1000 nM							
CCCCCCCn1c(=O)c(NCCCCc2cccc(SC(C)(C)C(=O)OCC)c2)nn(Cc2ccccc2)c1=O [Example 99, Ethyl 2-{3-[4-(2-benzyl-4-heptyl-3,5-dioxo-2,3,4,5-tetrahydro-[1,2,4]triazin-6-ylamino)-butyl]-phenylsulfanyl}-2-methyl-propionate]	3 to 10 µM	> 10000 nM							
CCOC(=O)/C=C/Cn1nc(NCCc2ccc(OC(C)(C)C(=O)OCC)cc2)c(=O)n(CCCC(F)(F)F)c1=O [Example 104, Ethyl 4-[6-{2-[4-(1-ethoxycarbonyl-1-methyl-ethoxy)-phenyl]-ethylamino}-3,5-dioxo-4-(4,4,4-trifluoro-butyl)-4,5-dihydro-3H-[1,2,4]triazin-2-yl]-but-2-enoate]	> 10 µM	1000 to 3000 nM							

Now from value to molecule, other results behind:

EC50 (human PPARγ)	EC50 (human PPARα)	Structure (SMILES)	change in vivo at 2.5 mg/kg [1, 2]	change in vivo at 10 mg/kg [1, 3]	change in vivo at 10 mg/kg [1, 4]	Plasma triglycerides ([1]; at 2.5 mg/kg)	change in vivo at 2.5 mg/kg ([1]; at 2.5 mg/kg, read-out: Plasma triglycerides)	Plasma cholesterol ([1]; at 10 mg/kg)	Plasma triglycerides ([1]; at 10 mg/kg)
~0.3 µM	300 to 1000 nM	CCCCCCCn1c(=O)c(OCCCCCc2cccc(OC(C)(C)C(=O)OCC)c2)nn(C)c1=O [Example 17, Ethyl 2-{3-[5-(4-heptyl-2-methyl-3,5-dioxo-2,3,4,5-tetrahydro-[1,2,4]triazin-6-yloxy)-pentyl]-phenoxy}-2-methyl-propionate]			-37%			active at 10	
~3 µM	1000 to 3000 nM	CCCCCCCn1nc(NCCCOc2ccc(OC(C)(C)C(=O)OCC)cc2)c(=O)n(C)c1=O [Example 45, Ethyl 2-{4-[3-(2-heptyl-4-methyl-3,5-dioxo-2,3,4,5-tetrahydro-[1,2,4]triazin-6-ylamino)-propoxy]-phenoxy}-2-methyl-propionate]		-16%					inactive at 10
> 10 µM	100 to 300 nM	CCOC(=O)C(C)(C)Oc1cccc(CCCNc2nn(C)c(=O)n(CCCC(F)(F)F)c2=O)c1 [Example 65, Ethyl 2-methyl-2-(3-{3-[2-methyl-3,5-dioxo-4-(4,4,4-trifluoro-butyl)-2,3,4,5-tetrahydro-[1,2,4]triazin-6-ylamino]-propyl}-phenoxy)-propionate]	-13%	-23%	-13%	inactive at 2.5			
3 to 10 µM	3000 to 10000 nM	CCCCCCCn1nc(NCCCc2cccc(OC(C)(C)C(=O)OCC)c2)c(=O)n(Cc2ccccc2)c1=O [Example 72, Ethyl 2-{3-[3-(4-Benzyl-2-heptyl-3,5-dioxo-2,3,4,5-tetrahydro-[1,2,4]triazin-6-ylamino)-propyl]-phenoxy}-2-methyl-propionate]		-21%					inactive at 10
3 to 10 µM	3000 to 10000 nM	CCCCCCCn1nc(NCCCCc2cccc(SC(C)(C)C(=O)OCC)c2)c(=O)n(C)c1=O [Example 94, Ethyl 2-{3-[4-(2-heptyl-4-methyl-3,5-dioxo-2,3,4,5-tetrahydro-[1,2,4]triazin-6-ylamino)-butyl]-phenylsulfanyl}-2-methyl-propionate]							
> 10 µM	1000 to 3000 nM	CCOC(=O)C(C)(C)Sc1cccc(CCCCNc2nn(CCCC(F)(F)F)c(=O)n(Cc3ccccc3)c2=O)c1 [Example 100, Ethyl 2-(3-{4-[4-Benzyl-3,5-dioxo-2-(4,4,4-trifluoro-butyl)-2,3,4,5-tetrahydro-[1,2,4]triazin-6-ylamino]-butyl}-phenylsulfanyl)-2-methyl-propionate]							
~10 µM	1000 to 3000 nM	CCOC(=O)C(C)(C)Oc1ccc(CCNc2nn(CCCC3CCCCC3)c(=O)n(CCCC(F)(F)F)c2=O)cc1 [Example 105, Ethyl 2-(4-{2-[2-(3-cyclohexyl-propyl)-3,5-dioxo-4-(4,4,4-trifluoro-butyl)-2,3,4,5-tetrahydro-[1,2,4]triazin-6-ylamino]-ethyl}-phenoxy)-2-methyl-propionate]							
~10 µM	1000 to 3000 nM	Cn1c(=O)c(NCCc2ccc(SC(C)(C)C(=O)O)cc2)nn(CCCC(F)(F)F)c1=O [Example 118, 2-Methyl-2-(4-{2-[4-methyl-3,5-dioxo-2-(4,4,4-trifluoro-butyl)-2,3,4,5-tetrahydro-[1,2,4]triazin-6-ylamino]-ethyl}-phenylsulfanyl)-propionic Acid]							
> 10 µM	300 to 1000 nM	CCCCCCCn1nc(NCCCc2ccc(SC(C)(C)C(=O)OCC)cc2)c(=O)n(C)c1=O [Example 124, Ethyl 2-{4-[3-(2-heptyl-4-methyl-3,5-dioxo-2,3,4,5-tetrahydro-[1,2,4]triazin-6-ylamino)propyl]-phenylsulfanyl}-2-methyl-propionate]							
